Results from patent US20010005714A1, “AMPHIPATHIC MOLECULES AS CHOLESTEROL AND OTHER LIPID UPTAKE INHIBITORS” (priority 1996, published 2001).

Legend:
[1] = test system: brush border membrane vesicles (BBMV); test: IC50 of cholesteryl oleate uptake at the brush border membrane (Example 6); assay type: biochemical, rabbit; conditions: donor 0.1 mg total lipid/ml, acceptor 2 mg protein/ml; 20 min at 25° C.
Experimental: An appropriate amount of inhibitor dissolved in 84.5 μl buffer (0.05 M Tris pH 7.4, 0.15 M NaCl) is mixed in an Eppendorf tube at time zero with 5 μl of a dispersion of donor and 10.5 μl of a dispersion of acceptor (i.e. brush border membrane vesicles (BBMV)) in the same buffer. The final concentration of the donor vesicles was 0.1 mg total lipid/ml, that of the acceptor was 2 mg protein/ml. The resulting mixture was incubated for 20 min at 25° C., and the reaction was stopped by adding 60 μl of the incubation medium to 120 μl ice-cold bufferin an airfuge tube. The diluted dispersion was immediately centrifuiaed in the airfuge at […] for 2 min. at 4° C. to separate donor vesicles from BBMV. Two 60 μl aliquots of the donor (=supernatant) were counted in a Beckman LS-7500 liquid scintillating counter to determine the radioactivity remaining in tbe donor.
Small unilamellar egg phosphatidycholine (PC) vesicles containing 1 mol % of cholesterol oleate and a trace amount of ^3H-cholesterol oleyl ether were made by dissolving the appropriate amounts of the lipids in CHCl3/CH3OH, (2:1, by vol.), taking the solution to dryness on a rotary evaporator and drying the residue in vacuo. The dried lipid film was dispersed in the appropriate volume of buffer by hand-shaking. The lipid dispersion was subjected to tip sonication as described in Brunner et al, J. Biol. Chem. 253 7538-7546 (1978). The resulting donor dispersion in buffer was centrifuged in the airfuge at 100000 g for 2 min at […]. Only the top 80% of the donor dispersion after centrifugation was used in the lipid uptake experiment.
BBMV were prepared from frozen rabbit small intestine according to Hauser et al (Biochim. Biophys. Acta 602 567-577 (1980)). Prior to use in the uptake experiment determining IC50 values the BBMV were washed to remove any free protein liberated from the BBM. To this end the BBMV dispersion was diluted with buffer 1:1 in an airfuge tube, and the diluted dispersion was centrifuged in the airfuga at 100000 g for 2 min at […]. The supernatant was is carefully decanted, the pellet was resuspended in buffer to the original volume of the BBMV dispersion, and the dispersion was homogenized. […]

normal human BBMV = test: [14C]Cholesterol uptake from egg PC vesicles by normal human duodenal BBMV; assay type: biochemical
Experimental: (§1) Biopsy samples from human duodenum, 20 to 30 mg of wet tissue each, were suspended in 200 μl buffer (12 mM Tris HCl pH 7.2, 300 mM mannitol, 5 mM EGTA, 1 mM phenylmethylsulfonyl fluoride), frozen in liquid nitrogen and stored at −80° C. prior to use. BBMV were prepared by Mg^+2 precipitation (Hauser et al, Biochim. Biophys. Acta 602 567-577 (1980)) as described in detail by Booth et al (Lancet 1 1066-1069 (1985)). Proteinase K treatment of the BBMV was carried out according to Thurnhofer and Hauser (Biochim. Biophys. Acta 1024 249-262 (1990)). […] Small unilamellar phesrholipid vesicles were prepared by tip sonication (Schulthess, Biochemistry 33 4500-4508 (1994)).
(I) Egg PC small unilamellar vesicles containing […] (^14C] cholesterol and BBMV both dispersed in 10 mM Tris-HCl pH 7.2, 0.15 M NaCl, 5 mM EDTA were incubated at room temperature. After timed intervals phospholipid vesicles and BBMV were separated by centrifugation at 115000 g for 2 min in a Beckman airfuge. The radioactivities present in pellet and supernatant were determined by counting aliquots in a Beckman LS 7500 liquid scintillatior counter. Fusion of egg PC small unilamellar vesicles and BBMV as a possible mechanism of cholesterol uptake was ruled out as discussed in detail in previous studies (Thurnhofer and Hauser, Biochemistry 29 2142-2148 (1990); Compassi, Biochemistry 34 16473-16482 (1995) and Schulthess, J. Lipid. Res. 37 2405-2419 (1996)).
The experimental data were computer-fitted using the following equation valid for single-exponential exchange reactions: X=X∞+[XO−X∞]e^-k1^[(a+b)/a]t, where XO, X and X∞represent the fractions of the labelled lipid in the donor at times 0, t and at equilibrium, respectively. K1 is the pseudo-first-order rate constant of the reaction and a and b are the lipid pools of acceptor and donor, respectively (McKay, Nature 142 997-998 (1938) and Mutsch et al, Biochemistry 25 2134-2140 (1986).
(§2) Kinetic measurements were also carried out in the presence of inhibitors; synthetic peptides or apolipoproteins were added to the […] of donor and acceptor vesicles. Cholesterol uptake by native and proteinase K treated BBMV was determined in the presence of increasing concentrations of Ac-18A-NH2, the difference between cholesterol uptake by native and proteinase K treated BBMV is referred as protein-mediated cholesterol uptake in FIG. 6. The IC50 values were determined according to Methods Enzymol. 37 3-22 (1975).

[2] = test system: abetalipoproteinemic BBMV; test: [14C]Cholesterol uptake from egg PC vesicles by abetalipoproteinemic BBMV; assay type: biochemical, human; conditions: donor egg PC vesicles 0.01 mg lipid/ml, acceptor abetalipoproteinemic BBMV 0.25 mg lipid/ml; read-out: Inhibition IC50: concentration required to reduce protein-mediated cholesterol uptake by 50%
Experimental: as §1, with “(1994)). […]” for “(1994)).”
as §2, with “37 3-22 (1975).” left out

[3] = target: proteinase K-treated normal BBMV; test: [14C]Cholesterol uptake from egg PC vesicles by proteinase K-treated normal BBMV; assay type: biochemical, human
Experimental: as §1, with “(1994)). […]” for “(1994)).”
as §2, with “37 3-22 (1975).” left out

[4] = [14C]Cholesterol transfer from egg PC vesicles to egg PC/egg PA vesicles; assay type: biochemical
Experimental: (II) Similarly, egg PC small unilamellar vesicles containing 1 mol % [^14C] cholesterol as the donor and small unilamellar vesicles of egg PC/egg PA (85:15, mole ratio) as the acceptor were incubated at room temperature. After timed intervals aliquots of the incubation mixture were filtered through DEAE Sepharose C1-CB columns, which retained the negatively charged vesicles. Pure egg PC vesicles were eluted and their radioactivity determined.
as §2

BBMVs = test: Inhibition of cholesteryl oleate uptake by BBMVs by peptides of varying lengths (Example 8); assay type: biochemical; conditions: 120 μg peptide/ml
Experimental: going from one peptide to the other (top→bottom) 3 amino acids were removed from the N-terminus. The inhibitory effect of the four peptides listed above were compared at 120 μg peptide/ml. The lipid uptake by BBMVs was measured in the presence of 120 μg peptide/ml each as described below.
Donor and acceptor particles dispersed in Tris/NaCl buffer were centrifuged in a Beckman airfuge at 115000 g is for 2 min at 4° C. The dispersion of the acceptor yielded a pellet which was resuspended in Tris/NaCl buffer. Varying amounts of inhibitor dissolved in the same buffer were added to the acceptor dispersion and at time zero the dispersiorn of acceptor with or without inhibitor was mixed with the top 80% of the supernatant obtained by centrifugation of the donor dispersion. The final concentration of the donor was 0.05 mg total lipid/ml and that of the acceptor was 5 mg protein/ml. The resulting dispersion was incubated at 23° C. and after timed intervals the sterol uptake was stopped by dilution of the incubation medium with 2 volumes of Tris/NaCl buffer. BBMV were separated from the donor by centrifugation in the Beckman airfuge at 115000 g for 2 min at 4° C. The radioactivities in the supernatant containing the donor and in the pellet containing the BBMV (acceptor) were determined in a Beckman LS 7500 scintillation counter.

IC50 [1]: 16 ± 1 µM
IC50 (μg/mL) of cholesteryl oleate uptake at the brush border membrane [1]: 35 ± 2 µg/mL
IC50 [2]: 23 ± 3 µM
Inhibition IC50 ([3]; donor egg PC vesicles 0.01 mg lipid/ml, acceptor proteinase K-treated normal BBMV 0.25 mg lipid/ml): no inhibition
inhibitory effect on cholesterol uptake (in words) ([3]; proteinase K-treated BBMV): no inhibitory effect
Inhibition IC50 ([4]; donor egg PC vesicles 0.01 mg lipid/ml, acceptor egg PC/egg PA vesicles 0.25 mg lipid/ml): no inhibition
Substance: Ac-Asp-Trp-Leu-Lys-Alα-Phe-Tyr-Asp-Lys-Val-Alα -Glu-Lys-Leu-Lys-Glu-Alα-Phe-NH2 [Ac-18A-NH2, amphipathic α-helix of class A peptide, N-acetylated and C-amidated 18A]
effect on passive cholesterol transfer (in words) (normal human BBMV): no inhibitory effect
half time of residual cholesterol uptake by native BBMV not inhibited by the peptide (normal human BBMV; 60 μM Ac-18A-NH2): 6.7 ± 1.4 h
IC50 (normal human BBMV; donor egg PC vesicles 0.01 mg lipid/ml, acceptor normal human BBMV 0.25 mg lipid/ml, 20 min, read-out: Inhibition IC50: concentration required to reduce protein-mediated cholesterol uptake by 50%): 23 ± 1 µM
inhibition of protein-mediated cholesterol uptake (in words) (normal human BBMV; human duodenal BBMV): effectively and completely inhibited
inhibitory effect on cholesterol transfer between phospholipid vesicles (in words) [4]: no inhibitory effect
inhibitory effect on cholesteryl oleate uptake (in words, footnote) (BBMVs): Useful inhibitory effect is seen with Peptides Nos. 1 and 2.
Inhibition of Cholesteryloleate Uptake In. % (BBMVs; donor 0.05 mg total lipid/ml, acceptor 5 mg protein/ml, 23° C.): 100%
